How the values were obtained:
Experiment in all cases: Bliss excess, mean over the matrix (fraction); higher = more synergy
[1] = system: TE-1 (Esophageal Squamous Cell Carcinoma)
How it was run: (§1)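 Bliss excess equals the observed combination effect minus the expected value EA + EB − EA·EB, where EA and EB are the effects of each agent alone. Combination Emax is the second-highest inhibition within the matrix. Inhibition was scaled from CellTiter-Glo 2.0 luminescence, with 0 set by vehicle wells and 1 by blank wells, after 72 hours of two-drug dosing of cells plated in 1536-well plates.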

[2] = system: SW13 (Other Solid Carcinomas)
How it was run: as §1

[3] = system: RF-48 (B-Cell Non-Hodgkin's Lymphoma)
How it was run: as §1

[4] = system: NEC8 (Other Solid Carcinomas)
How it was run: as §1

[5] = system: C-4-I (Cervical Carcinoma)
How it was run: as §1

[6] = system: NCI-H358 (Lung Adenocarcinoma)
How it was run: as §1

TK10 (Kidney Carcinoma) = system: TK10 (Kidney Carcinoma)
How it was run: as §1

[7] = system: SU8686 (Pancreatic Carcinoma)
How it was run: as §1

[8] = system: PANC-04-03 (Pancreatic Carcinoma)
How it was run: as §1

ACHN (Kidney Carcinoma) = system: ACHN (Kidney Carcinoma)
How it was run: as §1

[9] = system: AMO-1 (Plasma Cell Myeloma)
How it was run: as §1

[10] = system: OVCAR-4 (Ovarian Carcinoma)
How it was run: as §1

[11] = system: OE19 (Esophageal Adenocarcinoma)
How it was run: as §1

[12] = system: HSC-4 (Oral Cavity Carcinoma)
How it was run: as §1

[13] = system: Ca9-22 (Head and Neck Carcinoma)
How it was run: as §1

UACC-62 (Melanoma) = system: UACC-62 (Melanoma)
How it was run: as §1

[14] = system: HGC-27 (Gastric Carcinoma)
How it was run: as §1

[15] = system: SCC-15 (Oral Cavity Carcinoma)
How it was run: as §1

NB69 (Neuroblastoma) = system: NB69 (Neuroblastoma)
How it was run: as §1

[16] = system: NCI-H1915 (Non-Small Cell Lung Carcinoma)
How it was run: as §1

| SMILES | Bliss excess [1] | Bliss excess [2] | Bliss excess [3] | Bliss excess [4] | Bliss excess [5] | Bliss excess [6] | Bliss excess (TK10 (Kidney Carcinoma)) | Bliss excess [7] | Bliss excess [8] | Bliss excess (ACHN (Kidney Carcinoma)) | Bliss excess [9] | Bliss excess [10] | Bliss excess [11] | Bliss excess [12] | Bliss excess [13] | Bliss excess (UACC-62 (Melanoma)) | Bliss excess [14] | Bliss excess [15] | Bliss excess (NB69 (Neuroblastoma)) | Bliss excess [16] |
| --- | --- | --- | --- | --- | --- | --- | --- | --- | --- | --- | --- | --- | --- | --- | --- | --- | --- | --- | --- | --- |
| CN(C)CCCOc1ccc(-c2ccc3ncc4c(c3c2)n(C2CCOCC2)c(=O)n4C)cn1 [AZD0156] + C=CCn1c(=O)c2cnc(Nc3ccc(N4CCN(C)CC4)cc3)nc2n1-c1cccc(C(C)(C)O)n1 [AZD1775] (first compound max 1 µM, partner max 1 µM) | -0.0167 | -0.0449 | -0.0093 | 0.0183 | -0.0175 | 0.0011 | -0.0318 | -0.0231 | -0.0836 | 0.022 | 0.011 | -0.0368 | 0.0012 | -0.0418 | -0.0042 | 0.0087 | 0.0088 | -0.0799 | -0.0337 | -0.0572 |
| CN(C)CCCOc1ccc(-c2ccc3ncc4c(c3c2)n(C2CCOCC2)c(=O)n4C)cn1 [AZD0156] + CCN(CCO)CCCOc1ccc2c(Nc3cc(CC(=O)Nc4cccc(F)c4)[nH]n3)ncnc2c1 [AZD2811] (first compound max 1 µM, 7x7, partner max 1 µM) | -0.0016 | 0.0259 | 0.0084 | 0.0233 | -0.0074 | -0.0214 | -0.0342 | -0.0375 | -0.0644 | -0.0232 | 0.0053 | -0.0148 | 0.0224 | -0.0348 | -0.0056 | -0.0467 | -0.0352 | -0.0458 | -0.0815 | 0.0174 |
| CN(C)CCCOc1ccc(-c2ccc3ncc4c(c3c2)n(C2CCOCC2)c(=O)n4C)cn1 [AZD0156] + C[C@@H]1COCCN1C2=NC(=NC(=C2)C3(CC3)[S@](=N)(=O)C)C4=C5C=CNC5=NC=C4 [AZD6738] (first compound max 1 µM, 7x7, partner max 10 µM) | -0.0595 | 0.0112 | 0.0487 | 0.072 | 0.0071 | 0.0219 | 0.001 | 0.0025 | -0.0398 | -0.0212 | 0.0146 | 0.0213 | 0.0277 | -0.0461 | 0.0218 | -0.0035 | 0.0357 | -0.0209 | -0.069 | 0.0366 |
| CN(C)CCCOc1ccc(-c2ccc3ncc4c(c3c2)n(C2CCOCC2)c(=O)n4C)cn1 [AZD0156] + O=C(c1cc(Cc2n[nH]c(=O)c3ccccc23)ccc1F)N1CCN(C(=O)C2CC2)CC1 [Olaparib] (first compound max 3 µM, partner max 3 µM) | -0.0185 | 0.0694 | 0.0064 | 0.104 | 0.0867 | -0.0175 | -0.0279 | -0.0011 | 0.0481 | 0.0728 | 0.0066 | -0.0137 | 0.13 | 0.0226 | 0.132 | -0.028 | 0.0997 | 0.067 | 0.0875 | 0.0032 |
| C=CCn1c(=O)c2cnc(Nc3ccc(N4CCN(C)CC4)cc3)nc2n1-c1cccc(C(C)(C)O)n1 [AZD1775] + C1CN(CCC1(C(=O)N[C@@H](CCO)C2=CC=C(C=C2)Cl)N)C3=NC=NC4=C3C=CN4 [Capivasertib] (first compound max 3 µM, partner max 3 µM) | 0.001 | -0.016 | -0.0989 | 0.013 | 0.0113 | -0.0375 | -0.124 | -0.0619 | 0.083 | -0.0283 | 0.0002 | -0.0627 | 0.0192 | 0.0018 | -0.0236 | 0.0375 | 0.0785 | -0.0319 | -0.0304 | 0.0032 |
| C=CCn1c(=O)c2cnc(Nc3ccc(N4CCN(C)CC4)cc3)nc2n1-c1cccc(C(C)(C)O)n1 [AZD1775] + C[C@@H]1COCCN1C2=NC(=NC(=C2)C3(CC3)[S@](=N)(=O)C)C4=C5C=CNC5=NC=C4 [AZD6738] (first compound max 1 µM, partner max 10 µM) | -0.0395 | 0.0169 | -0.0098 | 0.163 | 0.0088 | -0.0219 | -0.0896 | -0.0188 | -0.025 | -0.0184 | -0.0139 | 0.0352 | 0.0514 | -0.0155 | -0.0002 | 0.0163 | 0.118 | -0.0216 | 0.0351 | -0.0225 |
| C=CCn1c(=O)c2cnc(Nc3ccc(N4CCN(C)CC4)cc3)nc2n1-c1cccc(C(C)(C)O)n1 [AZD1775] + O=C(c1cc(Cc2n[nH]c(=O)c3ccccc23)ccc1F)N1CCN(C(=O)C2CC2)CC1 [Olaparib] (first compound max 1 µM, partner max 10 µM) | -0.0834 | -0.0137 | 0.0129 | 0.0029 | 0.0103 | -0.0184 | -0.0601 | -0.0399 | -0.0407 | -0.0445 | -0.0631 | 0.0249 | -0.0561 | -0.0337 | -0.0664 | -0.0207 | 0.0224 | -0.043 | 0.0619 | -0.0223 |
| CCN(CCO)CCCOc1ccc2c(Nc3cc(CC(=O)Nc4cccc(F)c4)[nH]n3)ncnc2c1 [AZD2811] + C=CCn1c(=O)c2cnc(Nc3ccc(N4CCN(C)CC4)cc3)nc2n1-c1cccc(C(C)(C)O)n1 [AZD1775] (first compound max 1 µM, partner max 1 µM) | 0.019 | 0.0821 | 0.0041 | 0.0471 | 0.0264 | -0.0312 | -0.0707 | -0.0166 | -0.0441 | 0.0555 | -0.0276 | 0.0107 | -0.0152 | -0.0467 | 0.027 | -0.029 | -0.0176 | 0.0237 | -0.0383 | 0.0056 |
| CCN(CCO)CCCOc1ccc2c(Nc3cc(CC(=O)Nc4cccc(F)c4)[nH]n3)ncnc2c1 [AZD2811] + C[C@@H]1COCCN1C2=NC(=NC(=C2)C3(CC3)[S@](=N)(=O)C)C4=C5C=CNC5=NC=C4 [AZD6738] (first compound max 1 µM, 7x7, partner max 10 µM) | -0.0042 | 0.0474 | -0.0434 | 0.0487 | -0.0263 | 0.0096 | -0.0811 | -0.034 | -0.0563 | -0.0369 | -0.0135 | -0.0179 | -0.0264 | -0.0687 | 0.0323 | -0.0338 | -0.0885 | -0.0478 | -0.0806 | 0.0021 |
| CCN(CCO)CCCOc1ccc2c(Nc3cc(CC(=O)Nc4cccc(F)c4)[nH]n3)ncnc2c1 [AZD2811] + O=C(c1cc(Cc2n[nH]c(=O)c3ccccc23)ccc1F)N1CCN(C(=O)C2CC2)CC1 [Olaparib] (first compound max 1 µM, 7x7, partner max 10 µM) | -0.031 | 0.0345 | 0.0181 | 0.0116 | 0.0328 | -0.063 | -0.0391 | -0.0075 | -0.0177 | 0.0023 | 0.0193 | 0.0234 | 0.0454 | -0.0347 | 0.0109 | -0.004 | -0.0122 | -0.0376 | -0.0517 | 0.025 |
| Cc1c2c(nn1C)CSCc1cc(n(C)n1)CSc1cc(c3ccccc3c1)OCCCc1c(C(=O)O)n(C)c3c-2c(Cl)ccc13 [AZD5991] + C=CCn1c(=O)c2cnc(Nc3ccc(N4CCN(C)CC4)cc3)nc2n1-c1cccc(C(C)(C)O)n1 [AZD1775] (first compound max 1 µM, partner max 1 µM) | -0.0456 | 0.0002 | 0.0064 | -0.0089 | 0.0267 | -0.0047 | 0.0159 | 0.0175 | – | -0.0085 | -0.0189 | 0.0117 | -0.0082 | -0.0805 | -0.032 | 0.0675 | -0.0061 | -0.0365 | -0.0267 | -0.0552 |
| Cc1c2c(nn1C)CSCc1cc(n(C)n1)CSc1cc(c3ccccc3c1)OCCCc1c(C(=O)O)n(C)c3c-2c(Cl)ccc13 [AZD5991] + CC1(C)CCC(CN2CCN(c3ccc(C(=O)NS(=O)(=O)c4ccc(NCC5CCOCC5)c([N+](=O)[O-])c4)c(Oc4cnc5[nH]ccc5c4)c3)CC2)=C(c2ccc(Cl)cc2)C1 [Venetoclax] (first compound max 1 µM, 7x7, partner max 1 µM) | – | 0.0016 | 0.12 | 0.0396 | -0.0019 | -0.0289 | -0.0581 | -0.0391 | -0.0381 | 0.0156 | 0.0456 | 0.0108 | -0.0285 | -0.0498 | -0.006 | 0.0296 | 0.1 | -0.0341 | 0.136 | -0.0211 |
| Cc1c2c(nn1C)CSCc1cc(n(C)n1)CSc1cc(c3ccccc3c1)OCCCc1c(C(=O)O)n(C)c3c-2c(Cl)ccc13 [AZD5991] + C[C@@H]1COCCN1C2=NC(=NC(=C2)C3(CC3)[S@](=N)(=O)C)C4=C5C=CNC5=NC=C4 [AZD6738] (first compound max 1 µM, 7x7, partner max 10 µM) | 0.0125 | 0.0363 | -0.0062 | 0.1 | 0.0416 | -0.0334 | -0.0599 | -0.008 | 0.0027 | -0.0008 | 0.0055 | -0.0472 | – | -0.0403 | 0.0573 | 0.0478 | 0.0562 | 0.0506 | 0.0301 | 0.0212 |
| CS(=O)(=O)CCNCc1ccc(-c2ccc3ncnc(Nc4ccc(OCc5cccc(F)c5)c(Cl)c4)c3c2)o1 [Lapatinib] + NC1(c2ccc(-c3nc4ccn5c(=O)[nH]nc5c4cc3-c3ccccc3)cc2)CCC1 [MK-2206] (first compound max 10 µM, 7x7, partner max 10 µM) | – | -0.0229 | 0.0003 | – | – | -0.0733 | 0.0616 | – | 0.0116 | 0.0221 | -0.048 | – | – | 0.0003 | 0.005 | 0.0426 | -0.0156 | – | 0.0688 | – |
| CCc1c2c(nc3ccc(O)cc13)-c1cc3c(c(=O)n1C2)COC(=O)[C@]3(O)CC [SN-38] + O=C(c1cc(Cc2n[nH]c(=O)c3ccccc23)ccc1F)N1CCN(C(=O)C2CC2)CC1 [Olaparib] (first compound max 0.3 µM, 7x7, partner max 10 µM) | – | 0.0364 | 0.0259 | 0.0473 | 0.055 | 0.0029 | 0.011 | – | 0.0215 | 0.0198 | 0.0023 | -0.0234 | 0.0026 | – | 0.0176 | 0.0203 | -0.0468 | – | 0.0236 | – |

Source: the supplement of paper PMC11061612
